# Measurements from patent US20240228482A1, “COMPOUNDS, COMPOSITIONS AND METHODS OF TREATING CANCER” (HOTSPOT THERAPEUTICS, INC., priority 2021, published 2024).
# Biological target: T1, CBL-B (Homo sapiens, UniProt Q13191)
# T1 construct: GST
# Assay: CBL-B TR-FRET IC50 screening (E1/E2 ubiquitination, Biotin-Ubiquitin, Anti GST-Tb donor / Streptavidin-d2 acceptor)
# Type: biochemical
# Conditions: CBL-B 10 nM final; 11-point titration from 100 uM; binned A-F; read-out: CBL-B TR-FRET activity IC50
# T1 sequence (Q13191 whole entry): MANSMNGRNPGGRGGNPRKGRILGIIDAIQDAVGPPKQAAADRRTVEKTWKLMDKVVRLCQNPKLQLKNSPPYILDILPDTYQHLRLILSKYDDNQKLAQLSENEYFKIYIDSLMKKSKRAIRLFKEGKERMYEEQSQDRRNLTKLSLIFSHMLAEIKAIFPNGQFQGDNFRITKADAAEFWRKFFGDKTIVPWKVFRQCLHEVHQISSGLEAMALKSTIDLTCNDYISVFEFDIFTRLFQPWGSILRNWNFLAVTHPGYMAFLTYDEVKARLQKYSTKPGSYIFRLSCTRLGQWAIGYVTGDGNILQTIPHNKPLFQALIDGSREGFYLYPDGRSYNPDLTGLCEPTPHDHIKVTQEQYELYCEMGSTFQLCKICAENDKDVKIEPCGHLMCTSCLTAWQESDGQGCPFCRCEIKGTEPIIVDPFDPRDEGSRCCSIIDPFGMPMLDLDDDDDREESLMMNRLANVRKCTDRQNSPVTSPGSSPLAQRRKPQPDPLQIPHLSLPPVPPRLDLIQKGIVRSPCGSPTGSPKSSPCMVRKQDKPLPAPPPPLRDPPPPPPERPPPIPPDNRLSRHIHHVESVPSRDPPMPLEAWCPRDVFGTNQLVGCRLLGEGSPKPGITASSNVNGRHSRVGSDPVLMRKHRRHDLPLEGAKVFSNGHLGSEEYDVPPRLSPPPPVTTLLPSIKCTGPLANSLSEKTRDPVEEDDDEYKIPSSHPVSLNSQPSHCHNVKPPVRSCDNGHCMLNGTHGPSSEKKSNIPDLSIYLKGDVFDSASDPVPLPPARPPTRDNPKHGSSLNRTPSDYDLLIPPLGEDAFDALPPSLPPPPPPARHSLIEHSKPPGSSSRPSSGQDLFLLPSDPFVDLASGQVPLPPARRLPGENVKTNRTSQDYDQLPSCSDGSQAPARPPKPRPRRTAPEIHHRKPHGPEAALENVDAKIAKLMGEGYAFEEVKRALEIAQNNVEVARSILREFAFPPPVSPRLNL
row,Structure (SMILES),IC50 [nM]
1,C[C@H](Cc1nnc[nH]1)c1cccc(-n2cc3c(C(F)(F)F)cccn3c2=O)c1 [Compound 46],1000 to 3000
2,"CO[C@@H]1CCCCN(Cc2cc(C(F)(F)F)c3cn(-c4cccc([C@H](c5nncn5C)C5CCC5)c4)c(=O)n3c2)C1 (single isomer, unassigned) [Compound 262]",< 100
3,CC1CC(c2cccc(-n3cc4c(C(F)(F)F)cc(C#N)cn4c3=O)c2)(c2nncn2C)C1 (centres unmarked) [Compound 184],< 100
4,C[C@@H]1CCCN1Cc1cc(C(F)(F)F)c2cn(-c3cccc([C@H](c4nncn4C)C4CCC4)c3)c(=O)n2c1 [Compound 381_P2],< 100
5,CC(=O)N1C2CCC1CN(Cc1cc(C(F)(F)F)c3cn(-c4cccc([C@H](c5nncn5C)C5CCC5)c4)c(=O)n3c1)C2 [Compound 349],< 100
6,"CC(c1cc(C(F)(F)F)c2cn(-c3cccc([C@H](c4nncn4C)C4CCC4)c3)c(=O)n2c1)N1CCC[C@H](C)C1 (single isomer, unassigned) [Compound 194]",< 100

# The next lines start with the values.
row,IC50 [nM],Structure (SMILES)
1,< 100,Cn1cnnc1CC1(c2cccc(-n3cc4c(C(F)(F)F)cc(CN5CCC(O)CC5)cn4c3=O)c2)COC1 [Compound 53]
2,< 100,Cn1cnnc1C1(c2cccc(-n3cc4c(C(F)(F)F)cc(CN5CCC(C)(F)CC5)cn4c3=O)c2)CC2(CC2)C1 [Compound 111]
3,< 100,Cc1c[nH]nc1CC1(c2cccc(-n3cc4c(C(F)(F)F)cc(CN5CCC[C@H](C)C5)cn4c3=O)c2)COC1 [Compound 207]
4,< 100,"Cn1cnnc1[C@]1(c2cccc(-n3cc4c(C(F)(F)F)cc(CN5CCC(F)CC5)cn4c3=O)c2)C[C@H](C)C1 (single isomer, unassigned) [Compound 237]"
5,< 100,Cn1cnnc1CC1(c2cccc(-n3cc4c(C(F)(F)F)cc(CN5CC(F)C5)cn4c3=O)c2)COC1 [Compound 23]
6,< 100,"CC(c1cc(C(F)(F)F)c2cn(-c3cccc(C4(Cc5nncn5C)COC4)c3)c(=O)n2c1)N1CCO[C@H](C)C1 (single isomer, unassigned) [Compound 157]"
7,100 to 300,Cn1cnnc1CC1(c2cccc(-n3cc4c(C(F)(F)F)cc(C#N)cn4c3=O)c2)COC1 [Compound 18]
8,< 100,"C[C@H]1CCCN(Cc2cc(C(F)(F)F)c3cn(-c4cccc([C@]5(c6nncn6C)C[C@@H](C)C5)c4)c(=O)n3c2)C1 (single isomer, unassigned) [Compound 59]"
9,< 100,"CO[C@H]1CCCCN(Cc2cc(C(F)(F)F)c3cn(-c4cccc([C@H](c5nncn5C)C5CCC5)c4)c(=O)n3c2)C1 (single isomer, unassigned) [Compound 261]"

# Same assay, conditions: second part of Table 2 (head 'Patent Cmpd No / Updated Activity'); same CBL-B TR-FRET IC50 bins A-F; read-out: Updated Activity
row,Structure (SMILES),IC50 [nM]
1,"CO[C@H]1C[C@@](c2cccc(-n3cc4c(C(F)(F)F)cc([C@H](C)N5CCC[C@H](C)C5)cn4c3=O)c2)(c2nncn2C)C1 (single isomer, unassigned) [Compound 601]",< 100
2,C[C@H]1CCCN(Cc2cc(C(F)(F)F)c3cn(-c4cncc([C@@H](c5nncn5C)C5CCC5)c4)c(=O)n3c2)C1 [Compound 628_P1],< 100
3,"Cc1cnnn1[C@@H](c1cccc(-n2cc3c(C(F)(F)F)cc(CN4CCC[C@H](C)C4)cn3c2=O)c1)C1CCC1 (single isomer, unassigned) [Compound 583]",3000 to 10000
4,"Cc1sc(CO)nc1[C@@H](c1cccc(-n2cc3c(C(F)(F)F)cc(CN4CCC[C@H](C)C4)cn3c2=O)c1)C1CCC1 (single isomer, unassigned) [Compound 391]",> 10000
5,C[C@H]1CCCN(Cc2cc(C(F)(F)F)c3cn(-c4cccc(C5(c6nncs6)CC(C)(C)C5)c4)c(=O)n3c2)C1 [Compound 624],301 to 1000

# Further lines, results first:
row,IC50 [nM],Structure (SMILES)
1,301 to 1000,"COC1([C@@H](c2cccc(-n3cc4c(C(F)(F)F)cc(CN5CCC[C@H](C)C5)cn4c3=O)c2)c2nncn2C)CCC1 (single isomer, unassigned) [Compound 579]"
2,< 100,Cn1cnnc1CC1(c2cccc(-n3cc4c(C(F)(F)F)cc(CN5CCC(OCCN)CC5)cn4c3=O)c2)COC1 [Compound 499]
3,< 100,Cn1cnnc1C1(c2cccc(-n3cc4c(C(F)(F)F)cc(CN5CCC(C)(F)CC5)cn4c3=O)c2)CCC1 [Compound 471]
